Source: patent US4080471A, “Use of substituted isopropylaminopropanols for inducing inotropic effects of the human heart” (priority 1976, dated 1978)
Entries after “also recorded” stand apart in the source; their conditions may differ.

How the values were obtained:
heart [1] = assay: Effect on heart contractility (maximum dP/dt) of the anesthetized dog; assay type: in vivo
Excerpt: Effects of Compound I and Ouabain On the Heart Contractility and Rhythmicity of the Anesthetized Dog
The object of the test was to compare compound I and oubain administered alone and in combination with each other to study the inotropic effect (maximum dP/dt in the left ventricle) and a possibly arrhythmic effect. The latter included an investigation of the ability of the compounds to cause repetitive ventricular response (RVR) when the heart was electrically stimulated via an electrode on the ventricle at the electrically vulnerable phase at the end of the T-wave. Klein et al. (M. Klein, N. S. Nejad, B. Lown, F. Hagemeijer and I. Blair, Circulation Research, 29, 635 (1971)) have shown that digitalis caused RVR at a dose which was about 70% of the dose giving spontaneous ventricular arrhythmias.
The dog was anesthetized with Mebumal® 30 mg/kg bodyweight i.v. Artificial respiration was applied. The sinus-node was electrocoagulated and the heart frequency was kept constant at 180 beats/minute in each test by electrical pacing of the auricle. Mean arterial blood pressure was registered from the carotis artery. ECG was registered during the test. Further, the pressure in the left ventricle was registered via a catheter inserted through the apex and connected to a pressure transducer. The intraventricular pressure curve was derivated to obtain maximum dP/dt which is a measure of the contractile force of the heart.
The test was started with a series of control registrations, whereupon the compounds were administered 3 times by infusion during five minutes and with an interval of 50 minutes between each infusion.
In the experiment with compound I only, the compound was administered in two doses of 10 μg/kg bodyweight and then one dose of 20 μg/kg bodyweight. Ouabain was given in 3 consecutive doses of 20 μg/kg bodyweight. In the combination test ouabain was first given in a dose of 20 μg/kg bodyweight followed by two doses of compound I of 10 and 20 μg/kg bodyweight, respectively.

heart [2] = assay: Ventricular arrhythmia in dogs after two-stage ligation of the left anterior coronary artery (third day post infarction); assay type: in vivo, dog
Experimental: Harris, A. S. Delayed Development of Ventricular Ectopic Rhythms following Coronary Occlusion, Cir. l, p 1318, (1950) described a method of two-stage ligation of the left anterior coronary artery in the dog. This method produces a multifocal ventricular arrhythmia that generally remains persistent on the first post ligation day (day 1-24 hours post infarct). The arrhythmia slowly disappears, and by the third post-ligation day the animal has essentially a normal sinus rhythm.
Maling, H. M. and Moran, N. C., Ventricular Arrhythmias Induced by Sympathominetic Amines in Unanesthetized Dogs Following Coronary Artery Occlussion, Cir.
METHODS, MATERIALS AND EXPERIMENTAL DESIGN
Seventeen adult female beagle dogs were used. Their ages ranged from one to three years. These animals were divided into two groups.
The first group consisted of 12 dogs and served as a control group. All animals were subjected to a two-stage ligation of the left anterior coronary artery. On the first post operative day these twelve animals were given various experimental antiarrhythmic agents as part of a routine testing procedure. It should be noted that, due to the nature of these agents, there would be no test drug or only trace amounts of test drug in the blood on day 3, and these amounts would cause little or no change on the outcome of a third day test. It should also be noted that all twelve of these animals has at least 85% ventricular ectopic beats on the morning after surgery in order to be accepted for testing.
On the third day post infarction the dogs were suspended in a standing position in a canvas sling. No anesthesia or sedation was used. ECGs were recorded as well as blood pressure. After a control period, an infusion of 20 μg/kg min. of 1-norepinephrine was begun using a Harvard infusion/withdrawal pump. This infusion lasted 120 minutes.
These five animals were all subjected to a two stage ligation of the anterior descending coronary artery. On day 1 and day 2 each dog was suspended in a canvas sling in the standing position and ECG, blood pressure, and other physiologic measurements were taken. […]

[3] = target: T1, beta-receptors of the heart (Felis catus, UniProt Q9TST6); assay: Beta-adrenergic (chronotropic, heart frequency) effects on anesthetized cat pretreated with reserpine; assay type: in vivo
T1 construct: Heart frequency was registered with a cardiotachometer triggered by the ECG; from tissue; host or cells: heart of the anaesthetized cat in vivo (reserpine-pretreated, vagotomized)
Experimental: (§1) Chronotropic (heart frequency) and vasodilatating effects:
(§2) When the cats had been anaesthetized with Mebumal® 30 mg/kg bodyweight i.p., an artificial air respiration was started. The two vagus nerves were cut and the blood passing through a femoral artery was fed via a catheter and a pump back to the distal part of the vessel. Parallelly, a pressure transducer was connected by which the perfusion pressure was registered. At a perfusion with a constant flow, the perfusion pressure is directly proportional to the peripheral resistance of the vascular bed of the hind limb. Blood circulation in the foot was interrupted with a ligature. Heart frequency was registered with a cardiotachometer triggered by the ECG. The substances were administered intravenously in increasing doses and the dose-response curves of the heart frequency and the vasodilatation were constructed.
(§3) Further, the dose ratios (ED50 for vasodilatation/ED50 for heart frequency) are calculated. A dose ratio >1 indicates a heart selective effect.

[4] = tested on: beta-receptors of the heart; assay: as above; assay type: in vivo; conditions: dose ratio >1 indicates a heart selective effect
Experimental: as §1, §2, §3

[5] = 20 minutes after administration, ouabain versus compound I
[6] = anesthetized dog, i.v. infusion

T1 sequence (Q9TST6 whole entry): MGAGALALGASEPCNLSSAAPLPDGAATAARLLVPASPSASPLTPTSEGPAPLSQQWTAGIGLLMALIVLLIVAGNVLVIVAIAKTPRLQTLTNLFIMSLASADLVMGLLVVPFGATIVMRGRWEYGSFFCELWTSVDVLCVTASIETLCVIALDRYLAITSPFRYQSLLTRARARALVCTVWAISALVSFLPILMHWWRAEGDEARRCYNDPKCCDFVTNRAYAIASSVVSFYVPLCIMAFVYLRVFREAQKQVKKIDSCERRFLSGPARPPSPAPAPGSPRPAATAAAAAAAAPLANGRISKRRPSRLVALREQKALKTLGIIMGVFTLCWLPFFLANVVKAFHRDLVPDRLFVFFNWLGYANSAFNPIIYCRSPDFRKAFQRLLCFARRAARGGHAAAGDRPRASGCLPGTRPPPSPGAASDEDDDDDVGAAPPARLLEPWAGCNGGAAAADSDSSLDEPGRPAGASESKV

CC(C)NCC(O)COc1ccc(O)cc1 (stereo not drawn) [Compound I, 1-isopropylamino-3-(p-hydroxyphenoxy)-propanol-2]
increase of aortic blood pressure (heart [1]; 20 minutes after administration): no effect
doses giving approximately the same level of maximum dP/dt (lower pair) (heart [1]; [5]): about 10 μg/kg bodyweight
doses giving corresponding effect on maximum dP/dt (higher pair) (heart [1]; [5]): 20 μg/kg bodyweight
effect on maximum dP/dt (in words) (heart [1]; [6]): increased the maximum dP/dt
onset of effect on maximum dP/dt (heart [1]; [6]): immediate
reduction of effect on maximum dP/dt after 50 minutes (heart [1]; [6]): almost completely reduced after 50 minutes
ventricular contractility compared with ouabain (in words) (heart [1]; at same increase of maximum dP/dt): increased the ventricular contractility a little more than ouabain
ectopic activity in postdrug observation period (heart [2]; 60 minutes after compound I infusion): essentially no ectopic activity
arrhythmogenic effect (in words) (heart [2]; compound I 1.0 mg/kg/min i.v. for twenty minutes, day 3 post infarct): not arrhythmogenic; also recorded: the few ectopic beats seen during the predrug control were slightly suppressed; also recorded: lacks arrhythmogenic properties
ED50 ([3]; cat, iv, read-out: ED50 Heart Frequency): 6 µg/kg
potency relative to isoprenaline, chronotropic effect ([3]; isoprenaline = 1, cat i.v.): about 1/100
Selectivity: ED50 Vasodilatation / ED50 Heart Frequency [4]: > 100
